pKi: −log10 of the molar value. Where two headings read alike, the source gives them in different places.
Target: T1, MMP-1 (Homo sapiens, UniProt P03956)
T1 construct: made in house; host or cells: MMP-1-transfected HT-1080 cells (spent media)
T1 sequence (P03956 100-469): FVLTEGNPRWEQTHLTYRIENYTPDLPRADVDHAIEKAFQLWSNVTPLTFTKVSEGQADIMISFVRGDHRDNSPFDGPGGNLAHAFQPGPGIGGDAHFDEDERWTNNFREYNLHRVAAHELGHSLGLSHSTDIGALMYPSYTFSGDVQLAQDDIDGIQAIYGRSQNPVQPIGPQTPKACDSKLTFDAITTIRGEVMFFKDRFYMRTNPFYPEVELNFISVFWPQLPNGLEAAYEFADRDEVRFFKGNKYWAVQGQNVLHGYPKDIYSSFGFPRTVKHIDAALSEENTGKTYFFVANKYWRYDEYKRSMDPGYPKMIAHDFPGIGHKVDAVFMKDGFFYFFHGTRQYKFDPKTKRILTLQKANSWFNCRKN
Experiment: In vitro MMP inhibition, Ki determination (fluorogenic substrate II)
Assay type: biochemical
Settings: read-out: MMP-1 Ki

SMILES | pKi (value outside parentheses) | pKi (value not in parenthesis)
CCCCOc1ccc(N2CCN(S(=O)(=O)C3(C(=O)NO)CCN(C(=O)C(C)(C)C)CC3)CC2)cc1 [Example 267] | < 5.00 | 
O=C(NO)C1(S(=O)(=O)N2CCN(c3ccc(SC(F)(F)F)cc3)CC2)CCS(=O)(=O)CC1 [Example 258] | < 5.00 | 
CCCCOc1ccc(N2CCN(S(=O)(=O)C3(C(=O)NO)CCN(C(=O)CO)CC3)CC2)cc1 [Example 271] | 5.13 | 
CCc1ccc(N2CCN(S(=O)(=O)C3(C(=O)NO)CCCC3)CC2)nc1 [Example 261] | 6.20 | 
CCCCc1ccc(C2CCN(S(=O)(=O)C3(C(=O)NO)CCN(CCOC)CC3)CC2)s1 [Example 55] |  | < 5.00
CCCCOc1ccc(N2CCN(S(=O)(=O)C3(C(=O)NO)CCOCC3)CC2)nc1 [Example 100] |  | 5.80
O=C(NO)C1(S(=O)(=O)N2CCN(c3cccc(C(F)(F)F)c3)CC2)CCOCC1 [Example 82] |  | < 5.00
CCCCOc1ccc(N2CCN(S(=O)(=O)C3(C(=O)NO)CCN(c4ccc(Cl)c(Cl)c4)CC3)CC2)cc1 [Example 250] |  | < 5.00
CCCCOc1ccc(N2CCN(S(=O)(=O)C3(C(=O)NO)CCN(CCOC)CC3)CC2)c(F)c1 [Example 284] | < 5.00 | 
O=C(NO)C1(S(=O)(=O)N2CCC(c3ccc(-c4ccc(F)cc4F)cn3)CC2)CCOCC1 [Example 308] | 5.17 | 
CCCCOc1ccc(N2CCN(S(=O)(=O)C3(C(=O)NO)CCN(C(=O)OCC(C)(C)C)CC3)CC2)cc1 [Example 97] |  | < 5.00
CCCCOc1ccc(N2CCN(S(=O)(=O)C3(C(=O)NO)CCN(c4ccc(C)cc4)CC3)CC2)cc1 [Example 295] | < 5.00 | 
CCCCOc1ccc(N2CCN(S(=O)(=O)C3(C(=O)NO)CCN(c4ccc(C(F)(F)F)cn4)CC3)CC2)cc1 [Example 257] | < 5.00 | 
CCCCOc1ccc(N2CCN(S(=O)(=O)C3(C(=O)NO)CCN(Cc4ccccc4)CC3)CC2)cc1F [Example 285] | < 5.00 | 
CCCCCc1ccc(N2CCN(S(=O)(=O)C3(C(=O)NO)CCN(c4ncccn4)CC3)CC2)nc1 [Example 95] |  | < 5.00
O=C(NO)C1(S(=O)(=O)N2CCN(c3ccc(C(F)(F)F)cn3)CC2)CCOCC1 [Example 94] |  | 6.12
CCc1ccc(N2CCN(S(=O)(=O)C3(C(=O)NO)CCCCC3)CC2)nc1 [Example 263] | 6.22 | 
CCCCOc1ccc(N2CCN(S(=O)(=O)C3(C(=O)NO)CCN(c4ccc(Cl)nn4)CC3)CC2)cc1 [Example 281] | < 5.00 | 
COCCN1CCC(C(=O)NO)(S(=O)(=O)N2CCC(c3ccc(CCC(F)(F)F)cc3)CC2)CC1 [Example 309] | < 5.00 | 
CCCCOc1ccc(N2CCN(S(=O)(=O)C3(C(=O)NO)Cc4ccccc4C3)CC2)nc1 [Example 85] |  | 5.32
CCCCc1ccc(N2CCN(S(=O)(=O)C3(C(=O)NO)CCN(c4cccnc4)CC3)CC2)nc1 [Example 96] |  | < 5.00
CCCCOc1ccc(N2CCN(S(=O)(=O)C3(C(=O)NO)CCN(C4CC4)CC3)CC2)cc1 [Example 301] | < 5.00 | 
COCCN1CCC(C(=O)NO)(S(=O)(=O)N2CCC(c3ccc(CCC(F)(F)C(F)(F)F)cc3)CC2)CC1 [Example 312] | < 5.00 | 
CCCCOc1ccc(N2CCN(S(=O)(=O)C3(C(=O)NO)CCN(c4nc5ccccc5s4)CC3)CC2)cc1 [Example 93] |  | < 5.00
COCCN1CCC(C(=O)NO)(S(=O)(=O)N2CCN(c3ccc(Oc4ccccc4)cc3)CC2)CC1 [Example 287] | < 5.00 | 
C#CCN1CCC(C(=O)NO)(S(=O)(=O)N2CCN(c3ccc(OCCCC)cc3)CC2)CC1 [Example 303] | < 5.00 | 
CCCCOc1ccc(N2CCN(S(=O)(=O)C3(C(=O)NO)CCN(C(=O)c4ccncc4)CC3)CC2)cc1 [Example 259] | < 5.00 | 
CCCCOc1ccc(N2CCN(S(=O)(=O)C3(C(=O)NO)CCN(c4ccc(Cl)cc4)CC3)CC2)cc1 [Example 251] | < 5.00 | 

SMILES | pKi (value outside parentheses) | pKi (value not in parenthesis)
O=C(NO)C1(S(=O)(=O)N2CCC(c3ccc(Br)cn3)CC2)CCOCC1 [Example 306] | 6.22 | 
O=C(NO)C1(S(=O)(=O)N2CCN(c3ccc(OC4CCC4)c(F)c3)CC2)CCOCC1 [Example 73] |  | < 5.00
CCCCOc1ccc(N2CCN(S(=O)(=O)C3(C(=O)NO)CCN(C(=O)N(C)C)CC3)CC2)cc1 [Example 254] | < 5.00 | 
CCCCOc1ccc(N2CCN(S(=O)(=O)C3(C(=O)NO)CCN(C(=O)c4ccccn4)CC3)CC2)cc1 [Example 277] | < 5.00 | 
CCCCOc1ccc(N2CCN(S(=O)(=O)C3(C(=O)NO)CCN(c4ccc(C)cc4)CC3)CC2)cc1F [Example 296] | < 5.00 | 
CCCCc1ccc(N2CCN(S(=O)(=O)C3(C(=O)NO)CCN(CCOC)CC3)CC2)nc1 [Example 270] | < 5.00 | 
CCCCOc1ccc(N2CCN(S(=O)(=O)C3(C(=O)NO)CCNCC3)CC2)cc1F [Example 286] | < 5.00 | 
CCCCOc1ccc(N2CCN(S(=O)(=O)C3(C(=O)NO)CCN(C(=O)c4cccnc4)CC3)CC2)cc1 [Example 266] | < 5.00 | 
CCCCOc1ccc(N2CCN(S(=O)(=O)C3(C(=O)NO)CCN(c4ccccc4)CC3)CC2)cc1 [Example 264] | < 5.00 | 
CCCCOc1ccc(N2CCN(S(=O)(=O)C3(C(=O)NO)CCN(C(N)=O)CC3)CC2)cc1 [Example 253] | < 5.00 | 
CCCCOc1ccc(N2CCN(S(=O)(=O)C3(C(=O)NO)CCN(C=O)CC3)CC2)cc1 [Example 269] | 5.19 | 
CCCCOc1ccc(N2CCN(S(=O)(=O)C3(C(=O)NO)CCN(C(=O)CN)CC3)CC2)cc1 [Example 292] | < 5.00 | 
CC(C)CCOc1ccc(N2CCN(S(=O)(=O)C3(C(=O)NO)CCOCC3)CC2)cc1 [Example 279] | < 5.00 | 
O=C(NO)C1(S(=O)(=O)N2CCN(c3ccc(OCc4ccccc4)cn3)CC2)CCOCC1 [Example 74] |  | 5.49
CS(=O)(=O)c1ccc(N2CCN(S(=O)(=O)C3(C(=O)NO)CCOCC3)CC2)cc1 [Example 300] | < 5.00 | 
O=C(NO)C1(S(=O)(=O)N2CCN(c3ccc(COCC(F)(F)F)cc3)CC2)CCOCC1 [Example 72] |  | < 5.00
CCCCc1ccc(C2CCN(S(=O)(=O)C3(C(=O)NO)CCOCC3)CC2)nc1 [Example 307] | 5.17 | 
CCCCOc1ccc(N2CCN(S(=O)(=O)C3(C(=O)NO)CCN(Cc4cccnc4)CC3)CC2)cc1F [Example 293] | < 5.00 | 
O=C(NO)C1(S(=O)(=O)N2CCN(c3ccc(OCCCCF)cc3)CC2)CCOCC1 [Example 89] |  | < 5.00
CCCCOc1ccc(N2CCN(S(=O)(=O)C3(C(=O)NO)CCN(Cc4ccco4)CC3)CC2)cc1 [Example 252] | < 5.00 | 
COCCN1CCC(C(=O)NO)(S(=O)(=O)N2CCC(c3ccc(CCCC(F)(F)F)cc3)CC2)CC1 [Example 310] | < 5.00 | 
CCCCOc1ccc(N2CCN(S(=O)(=O)C3(C(=O)NO)CCNCC3)CC2)cc1 [Example 276] | < 5.00 | 
CCCCOc1ccc(N2CCN(S(=O)(=O)C3(C(=O)NO)CCN(C(=O)COC)CC3)CC2)cc1 [Example 268] | 5.03 | 
CCCCOc1ccc(N2CCN(S(=O)(=O)C3(C(=O)NO)CCN(C(=O)CCCC)CC3)CC2)cc1 [Example 278] | < 5.00 | 
Cc1cc(N2CCN(S(=O)(=O)C3(C(=O)NO)CCOCC3)CC2)ccc1OC(C)C [Example 299] | < 5.00 | 
CCCCOc1ccc(N2CCN(S(=O)(=O)C3(C(=O)NO)CCN(C(C)=O)CC3)CC2)cc1 [Example 282] | < 5.00 | 
CCCCc1ccc(N2CCN(S(=O)(=O)C3(C(=O)NO)CCN(c4ncccn4)CC3)CC2)nc1 [Example 99] |  | 5.08
